Assay results as given in patent publication US7897330B2, “Methods for characterizing enzyme inhibitors” (AB Sciex, LLC, priority 2005, dated 2011).
Like-named read-outs stand apart in the source and are kept apart here.

Tests used:
P. falciparum LDH = P. falciparum LDH (Plasmodium falciparum, UniProt Q27743); assay: fluorescence-coupled LDH enzyme assay on microfluidics system, continuously variable concentration gradient, fit to Equation 4; type: biochemical
Text: A fluorescence-coupled enzyme assay was developed using a microfluidics system described herein for creating a continuously variable concentration gradient to monitor the reduction of NAD^+ by the enzyme LDH to give a fluorescent end product. This system was then adapted to measure potency and determine mechanism of inhibition by various inhibitors of LDH.
One of the products of the reaction in the assay, NADH, is coupled to Thermus thermophilus NADH oxidase to generate H2O2, which in turn is coupled to horseradish peroxidase which reacts with […] and amplex red (Molecular Probes, Inc., Eugene, Oreg., U.S.A.) to give the fluorescent product resorufin. […]
The novel data analysis techniques described herein for determining the mechanism of inhibition of an inhibitor (or mechanism of activation of an activator) are applied to the data produced from the microfluidics system. The titration of the enzyme with a continuous linear variation of inhibitor and substrate from zero to a pre-determined finite concentration yields a characteristic rate profile that is defined by the specific type of interaction of the inhibitor and enzyme with respect to the substrate. […]
The titration of LDH with a linear gradient of NAD^+ was performed on the microfluidics system described herein with the change in relative fluorescence intensity monitored under initial rate conditions. […]

[1] = molecular target: T1, rabbit muscle lactate dehydrogenase (LDH) (Oryctolagus cuniculus, UniProt P13491); assay: continuous variation method on microtiter plate, step concentration gradients; type: biochemical
T1 construct: the enzyme rabbit muscle lactate dehydrogenase (LDH); from tissue; host or cells: rabbit muscle
Text: Determination of the mechanism of inhibition by the inhibitor oxalate with respect to the substrate NAD^+ against the enzyme rabbit muscle lactate dehydrogenase (LDH) using a microtiter plate to generate individual step concentration gradients was attempted. FIG. 47 is a graph showing the results of the experiment. An attempt to determine the mechanism of inhibition by the inhibitor oxalate with respect to the substrate lactate against the enzyme rabbit muscle LDH using a microtiter plate to generate individual step concentration gradients was attempted. FIG. 48 is a graph showing the results of this experiment.

LDH = settings: cited from earlier work

Chain of P. falciparum LDH (Q27743 whole entry): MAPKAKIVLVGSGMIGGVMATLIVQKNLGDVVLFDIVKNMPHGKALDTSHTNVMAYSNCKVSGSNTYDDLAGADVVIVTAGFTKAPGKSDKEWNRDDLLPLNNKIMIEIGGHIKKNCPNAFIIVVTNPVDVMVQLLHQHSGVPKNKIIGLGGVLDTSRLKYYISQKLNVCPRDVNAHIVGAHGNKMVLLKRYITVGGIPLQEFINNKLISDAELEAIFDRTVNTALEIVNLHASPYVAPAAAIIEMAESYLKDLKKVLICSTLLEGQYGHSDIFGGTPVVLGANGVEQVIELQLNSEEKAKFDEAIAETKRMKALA

Row | Structure (SMILES) | mechanism of inhibition (P. falciparum LDH; with respect to substrate NAD+, continuous gradient) | mechanism of inhibition ([1]; with respect to NAD+, ambiguous) | mechanism of inhibition ([1]; with respect to lactate, not certain) | mechanism of inhibition (LDH; with respect to NAD+) | mechanism of inhibition (LDH; with respect to lactate) | Km (P. falciparum LDH; titration of LDH with linear gradient of NAD+, initial rate conditions, read-out: Km (Michaelis constant))
1 | O=C(O)C(=O)O [oxalate] | uncompetitive inhibition | uncompetitive inhibitor | competitive inhibitor | uncompetitive | competitive inhibitor | –
2 | NC(=O)c1ccc[n+]([C@@H]2O[C@H](COP(=O)([O-])OP(=O)(O)OC[C@H]3O[C@@H](n4cnc5c(N)ncnc54)[C@H](O)[C@@H]3O)[C@@H](O)[C@H]2O)c1 [NAD^+] | – | – | – | – | – | 54 ± 2 µM
